Assay results: patent publication US20260092057A1, “BCL-XL/BCL-2 DEGRADERS AND USES THEREOF” (Kymera Therapeutics, Inc., priority 2022, published 2026)

How the values were obtained:
Type in all cases: cell-based
[1] = target: T1, BCL-XL (Homo sapiens, UniProt Q07817); experiment: BCL-XL degradation assay in MOLT-4 cells (ELISA, 6 h); details: for DC50: read-out: Bcl-xL ELISA in MOLT-4 degradation 6 h: External Abs-DC50
T1 construct: BCL-XL degradation results in MOLT-4 cells for compounds of the invention; endogenous in cells; host or cells: MOLT-4

[2] = test system: MOLT-4 cells; experiment: CTG (CellTiter-Glo) cell viability assay, MOLT-4; details: Homo sapiens, MOLT-4, 72 h, MOLT-4, 3 day; read-out: CTG Cell Viability Assay - MOLT-4 3 day: Average external-IC50
How it was run: (§1)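 Cells seeded at 10,000 per well, then exposed to a 9-point 1:3 dilution series from 10 µM top concentration (0.2% DMSO) for 3 days at 37 °C, 5% CO2. Viability measured by CellTiter-Glo luminescence; IC50 from a three-parameter logistic fit.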

[3] = test system: Caki-2 cells; experiment: CTG (CellTiter-Glo) cell viability assay, Caki-2; details: Homo sapiens, CAKI-2, 72 h, Caki-2, 3-day; read-out: CTG Chempartner/PHA- Caki-2 3-day: Average external-IC50
How it was run: as §1

T1 sequence (Q07817 whole entry): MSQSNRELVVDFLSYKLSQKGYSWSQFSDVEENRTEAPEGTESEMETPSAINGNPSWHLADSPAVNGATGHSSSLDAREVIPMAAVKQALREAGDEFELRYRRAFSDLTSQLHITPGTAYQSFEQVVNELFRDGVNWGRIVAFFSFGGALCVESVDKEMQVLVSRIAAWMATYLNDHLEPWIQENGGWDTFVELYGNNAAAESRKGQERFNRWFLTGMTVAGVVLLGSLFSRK

Dmax [1] [%]	DC50 [1] [µM]	IC50 [2] [µM]	Structure (SMILES)	IC50 [3] [µM]
50 to 75	0.1 to 0.5	0.1 to 1	C#Cc1ccc([C@H](C)NC(=O)[C@@H]2C[C@@H](O)CN2C(=O)[C@@H](NC(=O)CCCCCC(=O)N2CCN(CCCNc3ccc(S(=O)(=O)NC(=O)c4ccc(N5CCN(CC6=C(c7ccc(Cl)cc7)CC(C)(C)CC6)CC5)cc4Oc4cnc5[nH]ccc5c4)cc3S(=O)(=O)C(F)(F)F)CC2)C(C)(C)C)cc1F [I-105]	> 30
50 to 75	< 0.01	< 0.1	Cc1ncsc1-c1ccc([C@H](C)NC(=O)[C@@H]2C[C@@H](O)CN2C(=O)[C@@H](NC(=O)CCCCCC(=O)N2CCCN(CC[C@H](CSc3ccccc3)Nc3ccc(S(=O)(=O)NC(=O)c4ccc(N5CCN([C@@H](O)c6ccccc6-c6ccc(Cl)cc6)CC5)cc4)cc3S(=O)(=O)C(F)(F)F)CC2)C(C)(C)C)cc1 [I-124]	10 to 30
< 50	0.5 to 1	0.1 to 1	C#Cc1ccc([C@H](C)NC(=O)[C@@H]2C[C@@H](O)CN2C(=O)[C@@H](NC(=O)CCCCCC(=O)N2CCN(CCCNc3ccc(S(=O)(=O)NC(=O)c4ccc(N5CCN(CC6=C(c7ccc(Cl)cc7)CC(C)(C)CC6)CC5)cc4Oc4cnc5[nH]ccc5c4)cc3S(=O)(=O)C(F)(F)F)CC2)C(C)(C)C)cc1 [I-85]	> 30
> 75	0.01 to 0.1	< 0.1	Cc1ncsc1-c1ccc([C@H](C)NC(=O)[C@@H]2C[C@@H](O)CN2C(=O)[C@@H](NC(=O)CCCCCCC(=O)N2CCN(CCCNc3ccc(S(=O)(=O)NC(=O)c4ccc(N5CCN(CC6=C(c7ccc(Cl)cc7)CC(C)(C)CC6)CC5)cc4Oc4cnc5[nH]ccc5c4)cc3S(=O)(=O)C(F)(F)F)CC2)C(C)(C)C)cc1 [I-81]	> 30
50 to 75	0.01 to 0.1	< 0.1	Cc1ncsc1-c1ccc([C@H](C)NC(=O)[C@@H]2C[C@@H](O)CN2C(=O)[C@@H](NC(=O)CCCCCCN(C)CC[C@H](CSc2ccccc2)Nc2ccc(S(=O)(=O)NC(=O)c3ccc(N4CCC([C@@H](O)c5ccccc5-c5ccc(Cl)cc5)CC4)cc3)cc2S(=O)(=O)C(F)(F)F)C(C)(C)C)cc1 [I-108]	> 30
50 to 75	0.01 to 0.1	< 0.1	Cc1ncsc1-c1ccc([C@H](C)NC(=O)[C@@H]2C[C@@H](O)CN2C(=O)[C@@H](NC(=O)CCCCC(=O)N2CCC3(CCN(CC[C@H](CSc4ccccc4)Nc4ccc(S(=O)(=O)NC(=O)c5ccc(N6CCN([C@@H](O)c7ccccc7-c7ccc(Cl)cc7)CC6)cc5)cc4S(=O)(=O)C(F)(F)F)CC3)CC2)C(C)(C)C)cc1 [I-126]	< 5
> 75	< 0.01	0.1 to 1	Cc1ncsc1-c1ccc([C@H](C)NC(=O)[C@@H]2C[C@@H](O)CN2C(=O)[C@@H](NC(=O)CCCCCC(=O)N2CCN(c3ccc(-c4ccc(Cl)cc4)c([C@H](O)C4CCN(c5ccc(C(=O)NS(=O)(=O)c6ccc(N[C@H](CCN(C)CCO)CSc7ccccc7)c(S(=O)(=O)C(F)(F)F)c6)cc5)CC4)c3)CC2)C(C)(C)C)cc1 (single isomer, unassigned) [I-113]	> 30
< 50	0.5 to 1	0.1 to 1	Cc1ncsc1-c1ccc([C@H](C)NC(=O)[C@@H]2C[C@@H](O)CN2C(=O)[C@@H](NC(=O)CCCCCN2CCN(CCCNc3ccc(S(=O)(=O)NC(=O)c4ccc(N5CCN(CC6=C(c7ccc(Cl)cc7)CC(C)(C)CC6)CC5)cc4Oc4cnc5[nH]ccc5c4)cc3S(=O)(=O)C(F)(F)F)CC2)C(C)(C)C)cc1 [I-74]	> 30
50 to 75	0.5 to 1	> 3	Cc1ncsc1-c1ccc([C@H](C)NC(=O)[C@@H]2C[C@@H](O)CN2C(=O)[C@@H](NC(=O)CCCCCC(=O)N2CCC(NCC[C@H](CSc3ccccc3)Nc3ccc(S(=O)(=O)NC(=O)c4ccc(N5CCN([C@@H](O)c6ccccc6-c6ccc(Cl)cc6)CC5)cc4)cc3S(=O)(=O)C(F)(F)F)CC2)C(C)(C)C)cc1 [I-127]	> 30

The next lines start with the compound.

Structure (SMILES)	Dmax [1] [%]	DC50 [1] [µM]	IC50 [2] [µM]	IC50 [3] [µM]
Cc1ncsc1-c1ccc([C@H](C)NC(=O)[C@@H]2C[C@@H](O)CN2C(=O)[C@@H](NC(=O)CCCCCC(=O)N2CCN(CC[C@H](CSc3ccccc3)Nc3ccc(S(=O)(=O)NC(=O)c4ccc(N5CCN(Cc6ccccc6-c6ccc(Cl)cc6)CC5)cc4)cc3[N+](=O)[O-])CC2)C(C)(C)C)cc1 [I-35]	> 75	0.01 to 0.1	> 3	> 30
Cc1ncsc1-c1ccc([C@H](C)NC(=O)[C@@H]2C[C@@H](O)CN2C(=O)[C@@H](NC(=O)CCCCC(=O)N2CCN(CCCNc3ccc(S(=O)(=O)NC(=O)c4ccc(N5CCN(CC6=C(c7ccc(Cl)cc7)CC(C)(C)CC6)CC5)cc4Oc4cnc5[nH]ccc5c4)cc3S(=O)(=O)C(F)(F)F)CC2)C(C)(C)C)cc1 [I-63]	50 to 75	0.1 to 0.5	1 to 3	> 30
Cc1ncsc1-c1ccc([C@H](C)NC(=O)[C@@H]2C[C@@H](O)CN2C(=O)[C@@H](NC(=O)CCCCCCNC(=O)c2ccc(-c3ccc(Cl)cc3)c(CN3CCN(c4ccc(C(=O)NS(=O)(=O)c5ccc(N[C@H](CCN(C)C)CSc6ccccc6)c([N+](=O)[O-])c5)cc4)CC3)c2)C(C)(C)C)cc1 [I-11]	< 50	0.5 to 1	> 3	> 30
Cc1ncsc1-c1ccc([C@H](C)NC(=O)[C@@H]2C[C@@H](O)CN2C(=O)[C@@H](NC(=O)CCCCCC(=O)N2CCN(CCCNc3ccc(S(=O)(=O)NC(=O)c4ccc(N5CCN(CC6=C(c7ccc(Cl)cc7)CCC(C)(C)C6)CC5)cc4Oc4cnc5[nH]ccc5c4)cc3S(=O)(=O)C(F)(F)F)CC2)C(C)(C)C)cc1 [I-52]	50 to 75	0.1 to 0.5	0.1 to 1	> 30
Cc1ncsc1-c1ccc([C@H](C)NC(=O)[C@@H]2C[C@@H](O)CN2C(=O)[C@@H](NC(=O)CCCCCC(=O)N2CCN(CC[C@H](CSc3ccccc3)Nc3ccc(S(=O)(=O)NC(=O)c4ccc(N5CCOCC5)cc4)cc3S(=O)(=O)C(F)(F)F)CC2)C(C)(C)C)cc1 [I-36]	< 50	0.5 to 1	> 3	> 30
Cc1ncsc1-c1ccc([C@H](C)NC(=O)[C@@H]2C[C@@H](O)CN2C(=O)[C@@H](NC(=O)CCCCCCC(=O)N2CCN(C[C@]3(C)CCC(c4ccc(Cl)cc4)=C(CN4CCN(c5ccc(C(=O)NS(=O)(=O)c6ccc(NCCCN7CCOCC7)c(S(=O)(=O)C(F)(F)F)c6)c(Oc6cnc7[nH]ccc7c6)c5)CC4)C3)CC2)C(C)(C)C)cc1 [I-65]	50 to 75	0.01 to 0.1	< 0.1	10 to 30
Cc1ncsc1-c1ccc([C@H](C)NC(=O)[C@@H]2C[C@@H](O)CN2C(=O)[C@@H](NC(=O)CCCCCN(C)CCCNc2ccc(S(=O)(=O)NC(=O)c3ccc(N4CCC([C@H](O)c5ccccc5-c5ccc(Cl)cc5)CC4)cc3Oc3cnc4[nH]ccc4c3)cc2S(=O)(=O)C(F)(F)F)C(C)(C)C)cc1 [I-67]	50 to 75	0.5 to 1	> 3	> 30
Cc1ncsc1-c1ccc([C@H](C)NC(=O)[C@@H]2C[C@@H](O)CN2C(=O)[C@@H](NC(=O)CCCCCC(=O)N2CCN(CC[C@H](CSc3ccccc3)Nc3ccc(S(=O)(=O)NC(=O)c4ccc(N5CC6CCC5C6)cc4)cc3S(=O)(=O)C(F)(F)F)CC2)C(C)(C)C)cc1 (stereo partly shown) [I-40]	50 to 75	0.5 to 1	> 3	> 30
Cc1ncsc1-c1ccc([C@H](C)NC(=O)[C@@H]2C[C@@H](O)CN2C(=O)[C@@H](NC(=O)CCCCCC(=O)N2CCN(CCCNc3ccc(S(=O)(=O)NC(=O)c4ccc(N5CCC([C@H](O)c6ccccc6-c6ccc(Cl)cc6)CC5)cc4Oc4cnc5[nH]ccc5c4)cc3S(=O)(=O)C(F)(F)F)CC2)C(C)(C)C)cc1 (single isomer, unassigned) [I-38]	50 to 75	0.1 to 0.5	0.1 to 1	> 30
Cc1ncsc1-c1ccc([C@H](C)NC(=O)[C@@H]2C[C@@H](O)CN2C(=O)[C@@H](NC(=O)CCCCCC(=O)N2CCN(CC[C@H](CSc3ccccc3)Nc3ccc(S(=O)(=O)NC(=O)c4ccc(N5CC6CC6C5)cc4)cc3S(=O)(=O)C(F)(F)F)CC2)C(C)(C)C)cc1 (stereo partly shown) [I-37]	< 50	0.5 to 1	> 3	> 30
Cc1ncsc1-c1ccc([C@H](C)NC(=O)[C@@H]2C[C@@H](O)CN2C(=O)[C@@H](NC(=O)CCCC(=O)N2CCN(CCCNc3ccc(S(=O)(=O)NC(=O)c4ccc(N5CCC([C@H](O)c6ccccc6-c6ccc(Cl)cc6)CC5)cc4Oc4cnc5[nH]ccc5c4)cc3S(=O)(=O)C(F)(F)F)CC2)C(C)(C)C)cc1 (single isomer, unassigned) [I-60]	< 50	0.5 to 1	1 to 3	> 30
Cc1ncsc1-c1ccc([C@H](C)NC(=O)[C@@H]2C[C@@H](O)CN2C(=O)[C@@H](NC(=O)CCCCCCC(=O)N2CCN(Cc3ccc(-c4ccc(Cl)cc4)c(CN4CCN(c5ccc(C(=O)NS(=O)(=O)c6ccc(N[C@H](CCN(C)C)CSc7ccccc7)c([N+](=O)[O-])c6)cc5)CC4)c3)CC2)C(C)(C)C)cc1 [I-5]	> 75	0.01 to 0.1	0.1 to 1	> 30
Cc1ncsc1-c1ccc([C@H](C)NC(=O)[C@@H]2C[C@@H](O)CN2C(=O)[C@@H](NC(=O)CCCCCC(=O)N2CCN(CC[C@H](CSc3ccccc3)Nc3ccc(S(=O)(=O)NC(=O)c4ccc(NC5CCOCC5)cc4)cc3S(=O)(=O)C(F)(F)F)CC2)C(C)(C)C)cc1 [I-39]	50 to 75	0.1 to 0.5	> 3	> 30
